Experimental data reported in US20180194762A1 (Pharmacyclics LLC, priority 2017, published 2018).

Key:
Assay type in all cases: biochemical
Btk = biological target: T1, Btk (Homo sapiens, UniProt Q06187); assay: Btk in vitro inhibitory activity (one of Method A TR-FRET, Method B electrophoretic mobility shift, Method C radiometric filter binding); settings: wild-type Btk; read-out: Btk-WT IC50
T1 construct: purified from insect cells as a full-length construct containing a N-terminal 6X-His tag; His6 (N); made in house; host or cells: insect cells (Method C)
Method in brief: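 Three alternative formats were used. A radiometric filter-binding read used 8 nM full-length His-BTK with 0.2 mg/mL poly(Glu-Tyr) 4:1 (C); microfluidic separation of 1 μM FAM-peptide by 1 nM BTK gave IC50 from 12-point curves (B); TR-FRET at Km ATP, 0.5 nM Btk, gave Ki(app)-derived IC50 (A).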

TEC = biological target: T2, TEC (Homo sapiens, UniProt P42680); assay: Inhibition of a panel of kinases (in vitro HotSpot kinase assay, 33P-ATP, 1 μM ATP); settings: HotSpot kinase assay, 1 μM ATP
T2 sequence (P42680 1-631): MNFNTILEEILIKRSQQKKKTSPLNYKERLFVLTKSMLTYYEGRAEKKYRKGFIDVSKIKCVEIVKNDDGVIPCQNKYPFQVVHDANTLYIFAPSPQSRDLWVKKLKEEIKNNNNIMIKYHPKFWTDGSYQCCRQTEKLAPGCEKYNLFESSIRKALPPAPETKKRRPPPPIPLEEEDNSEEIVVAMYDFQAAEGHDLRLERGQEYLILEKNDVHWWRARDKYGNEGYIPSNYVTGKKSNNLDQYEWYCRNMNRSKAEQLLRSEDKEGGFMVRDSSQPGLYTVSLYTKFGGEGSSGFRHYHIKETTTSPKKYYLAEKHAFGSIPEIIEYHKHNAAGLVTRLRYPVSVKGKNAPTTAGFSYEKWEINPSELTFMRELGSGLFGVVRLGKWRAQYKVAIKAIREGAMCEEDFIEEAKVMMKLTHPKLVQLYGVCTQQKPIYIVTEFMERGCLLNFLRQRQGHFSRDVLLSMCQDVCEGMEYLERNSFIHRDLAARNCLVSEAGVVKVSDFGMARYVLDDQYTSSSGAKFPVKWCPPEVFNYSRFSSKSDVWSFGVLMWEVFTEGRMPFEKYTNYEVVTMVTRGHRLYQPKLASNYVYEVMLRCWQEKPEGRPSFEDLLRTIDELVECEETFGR
Method in brief: (§1)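 At 1 μM ATP spiked with 33P-ATP, substrate phosphorylation by the purified enzymes gives the extent of inhibition.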

panel of kinases = biological target: T3, panel of kinases (Homo sapiens, UniProt P51813); assay: Inhibition of a panel of kinases (in vitro HotSpot kinase assay, 33P-ATP, 1 μM ATP), other kinases; settings: BMX wild-type, read-out: BMX-WT IC50
T3 sequence (P51813 1-675): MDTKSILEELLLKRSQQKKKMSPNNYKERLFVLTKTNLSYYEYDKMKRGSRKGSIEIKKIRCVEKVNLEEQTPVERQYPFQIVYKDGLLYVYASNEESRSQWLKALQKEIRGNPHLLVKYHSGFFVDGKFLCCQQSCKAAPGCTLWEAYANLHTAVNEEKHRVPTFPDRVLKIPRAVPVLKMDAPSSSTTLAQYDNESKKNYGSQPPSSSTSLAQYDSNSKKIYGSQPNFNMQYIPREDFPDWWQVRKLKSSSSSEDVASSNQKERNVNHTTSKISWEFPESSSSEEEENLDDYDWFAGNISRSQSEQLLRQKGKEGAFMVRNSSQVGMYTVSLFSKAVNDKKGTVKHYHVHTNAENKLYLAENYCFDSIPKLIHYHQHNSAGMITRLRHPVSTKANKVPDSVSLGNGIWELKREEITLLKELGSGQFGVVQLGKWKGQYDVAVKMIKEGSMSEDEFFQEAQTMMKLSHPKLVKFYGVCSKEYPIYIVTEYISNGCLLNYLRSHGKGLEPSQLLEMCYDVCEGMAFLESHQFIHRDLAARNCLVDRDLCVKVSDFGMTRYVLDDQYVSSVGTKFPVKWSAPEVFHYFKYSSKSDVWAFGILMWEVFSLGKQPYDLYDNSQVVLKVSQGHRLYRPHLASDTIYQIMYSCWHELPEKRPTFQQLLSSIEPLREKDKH
Method in brief: as §1

T1 sequence (Q06187 whole entry): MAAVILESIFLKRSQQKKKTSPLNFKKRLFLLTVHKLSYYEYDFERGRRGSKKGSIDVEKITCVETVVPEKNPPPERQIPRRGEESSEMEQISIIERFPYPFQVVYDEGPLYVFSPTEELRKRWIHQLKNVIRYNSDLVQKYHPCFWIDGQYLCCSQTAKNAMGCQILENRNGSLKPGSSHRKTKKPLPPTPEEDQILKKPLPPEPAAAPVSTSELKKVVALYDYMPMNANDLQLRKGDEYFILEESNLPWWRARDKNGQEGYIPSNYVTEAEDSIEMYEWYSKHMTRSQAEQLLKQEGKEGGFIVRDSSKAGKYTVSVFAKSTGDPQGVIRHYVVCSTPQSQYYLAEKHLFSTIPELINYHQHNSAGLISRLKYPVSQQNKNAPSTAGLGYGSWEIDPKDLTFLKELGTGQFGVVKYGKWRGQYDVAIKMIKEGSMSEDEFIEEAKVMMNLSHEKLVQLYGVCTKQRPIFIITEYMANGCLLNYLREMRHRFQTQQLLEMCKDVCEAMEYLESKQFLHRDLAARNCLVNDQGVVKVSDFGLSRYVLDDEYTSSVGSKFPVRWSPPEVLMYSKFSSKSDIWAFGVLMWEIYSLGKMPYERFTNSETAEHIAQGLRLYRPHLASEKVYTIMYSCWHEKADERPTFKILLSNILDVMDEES

Row | Structure (SMILES) | IC50 (Btk) | IC50 (TEC) | IC50 (panel of kinases)
1 | C=CC(=O)N[C@@H]1CCN(c2n[nH]c3nccc(-c4ccc(CNC(=O)c5ccc(C(C)(C)O)cc5)c(F)c4)c23)C1 [Example 325, N-{[2-fluoro-4-(3-{(3R)-3-[(prop-2-enoyl)amino]pyrrolidin-1-yl}-1H-pyrazolo[3,4-b]pyridin-4-yl)phenyl]methyl}-4-(2-hydroxypropan-2-yl)benzamide] | 0.163 nM | 31.3 nM | 87.1 nM
2 | CN(C)C(=O)N1CC[C@@H](Nc2n[nH]c3nccc(-c4ccc(CNC(=O)c5coc(C6CC6)n5)c(F)c4)c23)C1 [Example 329, 2-cyclopropyl-N-{[4-(3-{[(3R)-1-(dimethylcarbamoyl)pyrroli-din-3-yl]amino}-1H-pyrazolo[3,4-b]pyridin-4-yl)-2-fluorophenyl]methyl}-1,3-oxazole-4-carboxamide] | 307 nM | 5720 nM | 5900 nM
3 | CC(C)(C)c1noc(C(=O)NCc2ccc(-c3ccnc4[nH]nc(N5CCC(N)C5)c34)cc2F)n1 (stereo not drawn) [Example 330, N-({4-[3-(3-aminopyrrolidin-1-yl)-1H-pyrazolo[3,4-b]pyridin-4-yl]-2-fluorophenyl}methyl)-3-tert-butyl-1,2,4-oxadiazole-5-carboxamide] | 0.626 nM | 1320 nM | 1230 nM
4 | C=CC(=O)N[C@@H]1CCN(c2n[nH]c3nccc(-c4ccc(CNC(=O)c5nc(C(C)(C)C)no5)c(F)c4)c23)C1 [Example 331, 3-tert-butyl-N-{[2-fluoro-4-(3-{(3R)-3-[(prop-2-enoyl)amino]pyrrolidin-1-yl}-1H-pyrazolo[3,4-b]pyridin-4-yl)phenyl]methyl}-1,2,4-oxadiazole-5-carboxamide] | 0.0353 nM | 30 nM | 33.2 nM
5 | CNC1CCN(c2n[nH]c3nccc(-c4ccc(CNC(=O)c5nc(C(C)(C)C)no5)c(F)c4)c23)C1 (stereo not drawn) [Example 333, 3-tert-butyl-N-[(2-fluoro-4-{3-[3-(methylamino)pyrrolidin-1-yl]-1H-pyrazolo[3,4-b]pyridin-4-yl}phenyl)methyl]-1,2,4-oxadiazole-5-carboxamide] | 1.26 nM | 4360 nM | 4470 nM
6 | CN(Cc1ccc(-c2ccnc3[nH]nc(N4CC[C@@H](N)C4)c23)cc1F)C(=O)c1nc(C(C)(C)C)no1 [Example 334, (R)-N-({4-[3-(3-aminopyrrolidin-1-yl)-1H-pyrazolo[3,4-b]pyridin-4-yl]-2-fluorophenyl}methyl)-3-tert-butyl-N-methyl-1,2,4-oxadiazole-5-carboxamide] | 1.43 nM | 4170 nM | 1920 nM
7 | C=CC(=O)N[C@@H]1CCN(c2n[nH]c3nccc(-c4ccc(CN(C)C(=O)c5nc(C(C)(C)C)no5)c(F)c4)c23)C1 [Example 335, 3-tert-butyl-N-{[2-fluoro-4-(3-{(3R)-3-[(prop-2-enoyl)amino]pyrrolidin-1-yl}-1H-pyrazolo[3,4-b]pyridin-4-yl)phenyl]methyl}-N-methyl-1,2,4-oxadiazole-5-carboxamide] | 0.0513 nM | 57.7 nM | 61.3 nM
8 | CNC1CCN(c2n[nH]c3nccc(-c4ccc(CN(C)C(=O)c5nc(C(C)(C)C)no5)c(F)c4)c23)C1 (stereo not drawn) [Example 337, 3-tert-butyl-N-[(2-fluoro-4-{3-[3-(methylamino)pyrrolidin-1-yl]-1H-pyrazolo[3,4-b]pyridin-4-yl}phenyl)methyl]-N-methyl-1,2,4-oxadiazole-5-carboxamide] | 2.35 nM | 8030 nM | 5200 nM
9 | C=CC(=O)N(C)[C@@H]1CCN(c2n[nH]c3nccc(-c4ccc(CN(C)C(=O)c5nc(C(C)(C)C)no5)c(F)c4)c23)C1 [Example 338, 3-tert-butyl-N-{[2-fluoro-4-(3-{(3R)-3-[methyl(prop-2-enoyl)amino]pyrrolidin-1-yl}-1H-pyrazolo[3,4-b]pyridin-4-yl)phenyl]methyl}-N-methyl-1,2,4-oxadiazole-5-carboxamide] | 0.0678 nM | 22.7 nM | 28.3 nM
10 | C=CC(=O)N1CC[C@@H](Nc2n[nH]c3nccc(-c4ccc(CNC(=O)c5cc(Cl)on5)c(F)c4)c23)C1 [Example 342, 5-chloro-N-{[2-fluoro-4-(3-{[(3R)-1-(prop-2-enoyl)pyrrolidin-3-yl]amino}-1H-pyrazolo[3,4-b]pyridin-4-yl)phenyl]methyl}-1,2-oxazole-3-carboxamide] | 3.77 nM | 210 nM | 28.8 nM
11 | C=CC(=O)N1CC[C@@H](Nc2n[nH]c3nccc(-c4ccc(CNC(=O)c5cc(-c6ccccc6)on5)c(F)c4)c23)C1 [Example 345, N-{[2-fluoro-4-(3-{[(3R)-1-(prop-2-enoyl)pyrrolidin-3-yl]amino}-1H-pyrazolo[3,4-b]pyridin-4-yl)phenyl]methyl}-5-phenyl-1,2-oxazole-3-carboxamide] | 30.6 nM | 253 nM | 55.7 nM
12 | C=CC(=O)N(C)[C@@H]1CCN(c2n[nH]c3nccc(-c4ccc(CNC(=O)c5nc(C(C)(C)C)no5)c(F)c4)c23)C1 [Example 347, 3-tert-butyl-N-{[2-fluoro-4-(3-{(3R)-3-[methyl(prop-2-enoyl)amino]pyrrolidin-1-yl}-1H-pyrazolo[3,4-b]pyridin-4-yl)phenyl]methyl}-1,2,4-oxadiazole-5-carboxamide] | 0.0423 nM | 9.02 nM | 15.8 nM
13 | CC(=O)N[C@@H]1CCN(c2n[nH]c3nccc(-c4ccc([C@@H](C)NC(=O)c5cc(C(C)(C)O)on5)c(F)c4)c23)C1 [Example 349, N-[(1R)-1-(4-{3-[(3R)-3-acetamidopyrrolidin-1-yl]-1H-pyrazolo[3,4-b]pyridin-4-yl}-2-fluorophenyl)ethyl]-5-(2-hydroxypropan-2-yl)-1,2-oxazole-3-carboxamide] | 3.99 nM | 1480 nM | 1330 nM
14 | C=CC(=O)N1CC[C@@H](Nc2n[nH]c3nccc(-c4ccc(CNC(=O)c5ccc6c(c5)OCCCO6)c(F)c4)c23)C1 [Example 351, (R)-N-{[2-fluoro-4-(3-{[1-(prop-2-enoyl)pyrrolidin-3-yl]amino}-1H-pyrazolo[3,4-b]pyridin-4-yl)phenyl]methyl}-3,4-dihydro-2H-1,5-benzodioxepine-7-carboxamide] | 4.43 nM | 340 nM | 95.7 nM
15 | C=CC(=O)N[C@@H]1CCN(c2n[nH]c3nccc(-c4ccc([C@@H](C)NC(=O)c5cc(C(C)(C)O)on5)c(F)c4)c23)C1 [Example 353, N-{(1R)-1-[2-fluoro-4-(3-{(3R)-3-[(prop-2-enoyl)amino]pyrrolidin-1-yl}-1H-pyrazolo[3,4-b]pyridin-4-yl)phenyl]ethyl}-5-(2-hydroxypropan-2-yl)-1,2-oxazole-3-carboxamide] | 0.244 nM | 67.8 nM | 35 nM
16 | CC(=O)N[C@@H]1CCN(c2n[nH]c3nccc(-c4ccc(CNC(=O)c5nc6c(s5)CCCC6)c(F)c4)c23)C1 [Example 356, N-[(4-{3-[(3R)-3-acetamidopyrrolidin-1-yl]-1H-pyrazolo[3,4-b]pyridin-4-yl}-2-fluorophenyl)methyl]-4,5,6,7-tetrahydro-1,3-benzothiazole-2-carboxamide] | 11.8 nM | 5380 nM | 2050 nM
